Laboratory results from US7517529B2, “Treatment of type I diabetes” (Biotempt B.V., priority 2003, dated 2009).
Ends that are not written are not given here.

Experiments:
NFκB [1] = assay: EMSA of nuclear extracts, basal and LPS-induced NFκB translocation in RAW 264.7 mouse macrophages; format: cell-based; conditions: 30 minutes; for LPS-induced translocation of NFκB: LPS in combination with peptide (1 microgr/ml; 1 mg/ml); for Basal levels of NFκB in the nucleus: peptide without LPS
Experimental: RAW 264.7 mouse macrophages were cultured in DMEM, containing 10% or 2% FBS, penicillin, streptomycin and glutamine, at 37° C., 5% CO2. Cells were seeded in a 12-wells plate (3×10^6 cells/ml) in a total volume of 1 ml for two hours and then stimulated with LPS (E. coli 026:B6; Difco Laboratories, Detroit, Mich., USA) and/or gene-regulatory peptide (1 microgr/ml). After 30 minutes of incubation, plates were centrifuged and cells were collected for nuclear extracts. Nuclear extracts and EMSA were prepared according to Schreiber et al. Cells were collected in a tube and centrifuged for five minutes at 2000 rpm (rounds per minute) at 4° C. (Universal 30 RF, Hettich Zentrifuges). The pellet was washed with ice-cold Tris buffered saline (TBS pH 7.4) and resuspended in 400 μl of a hypotonic buffer A (10 mM HEPES pH 7.9, 10 mM KCl, 0.1 mM EDTA, 0.1 mM EGTA, 1 mM DTT, 0.5 mM PMSF and protease inhibitor cocktail (Complete™ Mini, Roche) and left on ice for 15 minutes. Twenty-five microliters 10% NP-40 was added and the sample was centrifuged (two minutes, 4000 rpm, 4° C.). The supernatant (cytoplasmic fraction) was collected and stored at −70° C. The pellet, which contains the nuclei, was washed with 50 μl buffer A and resuspended in 50 μl buffer C (20 mM HEPES pH 7.9, 400 mM NaCl, 1 mM EDTA, 1 mM EGTA, 1 mM DTT, 0.5 mM PMSF and protease inhibitor cocktail and 10% glycerol). The samples were left to shake at 4° C. for at least 60 minutes. Finally the samples were centrifuged and the supernatant (nucleic fraction) was stored at −70° C.
Bradford reagent (Sigma) was used to determine the final protein concentration in the extracts. For electrophoretic mobility shift assays an oligonucleotide representing NFκB-binding sequence (5′-AGCTCAGAGGGGGACTTTCCGAGAG-3′ (SEQ ID NO:28)) was synthesized. Hundred pico mol sense and antisense oligo were annealed and labeled with […] using T4 polynucleotide kinase according to the manufacturer's instructions (Promega, Madison, Wis.). Nuclear extract (5 to 7.5 μg) was incubated for 30 minutes with 75000 cpm probe in binding reaction mixture (20 microliters) containing 0.5 μg poly dI-dC (Amersham Pharmacia Biotech) and binding buffer BSB (25 mM MgCl2, 5 mM CaCl2, 5 mM DTT and 20% Ficoll) at room temperature. The DNA-protein complex was resolved from free oligonucleotide by electrophoresis in a 4 to 6% polyacrylamide gel (150 V, two to four hours). The gel was then dried and exposed to x-ray film. The transcription factor NFκB participates in the transcriptional regulation of a variety of genes. Nuclear protein extracts were prepared from either LPS (1 mg/ml), peptide (1 mg/ml) or LPS in combination with peptide-treated and untreated RAW264.7 cells. In order to determine whether the peptides modulate the translocation of NFκB into the nucleus, on these extracts EMSA was performed. Peptides are able to modulate the basal as well as LPS-induced levels of NFκB. In this experiment peptides that show the inhibition of LPS-induced translocation of NFκB are: […] (SEQ ID NO:21), […] (SEQ ID NO:22), LQG, LQGV (SEQ ID NO:1), […] (SEQ ID NO:23), VLPALP (SEQ ID NO:4), VVC, MTR and circular […] (SEQ ID NO: 17). Peptides that in this experiment promote LPS-induced translocation of NFκB are: VLPALPQ (SEQ ID NO:13), GVLPALP (SEQ ID NO:16) and MTRV (SEQ ID NO:20). Basal levels of NFκB in the nucleus was decreased by […] (SEQ ID NO:21), […] (SEQ ID NO:22), LQG and LQGV (SEQ ID NO:1) while basal levels of NFκB in the nucleus was increased by […] (SEQ ID NO:23), VLPALPQ (SEQ ID NO:13), GVLPALP (SEQ ID NO:16), VVC, MTRV (SEQ ID NO:20), MTR and […].

[2] = system: relapsing-remitting multiple sclerosis; conditions: treated group, trial of 251 patients; cited from earlier work
[3] = system: production of NO by a cell; assay: Production of NO by a cell; format: cell-based
NFκB [4] = assay: Other experiments on translocation of NFκB into nucleus (data not shown); format: cell-based

Substance | LPS-induced translocation of NFκB (NFκB [1]) | Basal levels of NFκB in the nucleus (NFκB [1]) | annual relapse rate reduced by [2] [%] | production of NO by a cell [3] | modulation of translocation of NFκB into nucleus (NFκB [4])
GVLPALP | promote | increased | – | – | –
GVLPALPQ | inhibition | increased | – | – | –
Glatiramer acetate | – | – | 25 | – | –
LQG | inhibition | decreased | – | capable of reducing production of NO by a cell | –
LQGV | inhibition | decreased | – | capable of reducing production of NO by a cell | –
LQGVLPALPQ | inhibition | decreased | – | capable of reducing production of NO by a cell | –
LQGVLPALPQVVC | – | increased | – | – | –
MTR | inhibition | increased | – | – | –
MTRV | promote | increased | – | – | –
QVVC | – | – | – | – | modulation of translocation of NFκB into nucleus
VLPALP | inhibition | – | – | capable of reducing production of NO by a cell | –
VLPALPQ | promote | increased | – | – | –
VLPALPQVVC | inhibition | decreased | – | capable of reducing production of NO by a cell | –
VVC | inhibition | increased | – | – | –
circular LQGVLPALPQVVC (also: circular/cyclised, mode not given here) | inhibition | – | – | – | –
